Results as given in ChEMBL document CHEMBL1159103, “Discovery of biaryl inhibitors of H+/K+ ATPase” (Bioorg Med Chem Lett, 2010).

Assay: Inhibition of H(+)/K(+) ATPase

Compared with `Cc1cccc(C)c1CNc1cccc(-c2nc(C)c(C)[nH]2)c1`, `Cc1cccc(C)c1Nc1cccc(-c2nc(C)c(C)[nH]2)c1` is higher in pIC50: 4.3 for the first, 4.9 for the second.

Compared with `Cc1cccc(C)c1-c1ccc(O)c(-c2nc(C)c(C)[nH]2)c1`, `COc1ccc(-c2c(C)cccc2C)cc1-c1nc(C)c(C)[nH]1` is higher in pIC50: 5.7 for the first, 6.1 for the second.

First: Cc1nc(-c2cccc(-c3ccccc3)c2)[nH]c1C
Second: Cc1ccccc1-c1cccc(-c2nc(C)c(C)[nH]2)c1
The pIC50 of the first is lower: 4.7 for the first, 5.1 for the second.

Compared with `CNCc1cccc(-c2c(C)cccc2C)c1`, `Cc1cccc(C)c1-c1cccc(-c2nccn2C)c1` is higher in pIC50: 4.3 for the first, 5.2 for the second.

Compared with `Cc1cccc(C)c1-c1cccc(-c2nc(C)c(C)[nH]2)c1`, `Cc1cccc(C)c1-c1ccc(-c2nc(C)c(C)[nH]2)cc1` is lower in pIC50: 5.2 for the first, 4.4 for the second.

First: CCc1cccc(CC)c1-c1cccc(-c2nc(C)c(C)[nH]2)c1
Second: CCc1nc(-c2cccc(-c3c(C)cccc3C)c2)[nH]c1CC
The pIC50 of the first is higher: 5.1 for the first, 4.8 for the second.

`Cc1cccc(C)c1-c1cccc(-c2ncc[nH]2)c1` and `Cc1cccc(C)c1-c1cccc(-c2cc(N)ccn2)c1` are the same in pIC50: 4.5 for the first, 4.5 for the second.

`Cc1ccc(-c2nc(C)c(C)[nH]2)cc1-c1c(C)cccc1C` and `COc1ccc(-c2nc(C)c(C)[nH]2)cc1-c1c(C)cccc1C` are the same in pIC50: 4.9 for the first, 4.9 for the second.

Compared with `Cc1cccc(C)c1-c1cccc(-c2nc(C)c(C)n2C)c1`, `Cc1cccc(C)c1-c1cccc(-c2cn(C)c(C)n2)c1` is higher in pIC50: 4.6 for the first, 4.8 for the second.

`CCCn1ccnc1-c1cccc(-c2c(C)cccc2C)c1` and `Cc1cccc(C)c1-c1cccc(-c2cncn2C)c1` are within 0.2 log units of each other in pIC50: 4.3 for the first, 4.4 for the second.

`Cc1nc(-c2ccccc2-c2ccccc2)[nH]c1C` and `Cc1nc(-c2cccc(CCc3ccccc3)c2)[nH]c1C` are within 0.2 log units of each other in pIC50: 4.2 for the first, 4.3 for the second.

First: COc1cc(-c2c(C)cccc2C)cc(-c2nc(C)c(C)[nH]2)c1OC
Second: CCOc1ccc(-c2c(C)cccc2C)cc1-c1nc(C)c(C)[nH]1
The pIC50 of the first is lower: 4.6 for the first, 5.6 for the second.

Compared with `Cc1cccc(C)c1-c1cccc(-c2nc3ccccc3[nH]2)c1`, `Cc1cccc(C)c1-c1ccc(OCc2ccccc2)c(-c2nc(C)c(C)[nH]2)c1` is higher in pIC50: 4.4 for the first, 5.3 for the second.

Compared with `CCCn1c(-c2cc(-c3c(C)cccc3C)ccc2OC)nc(C)c1C`, `COC(=O)COc1ccc(-c2c(C)cccc2C)cc1-c1nc(C)c(C)[nH]1` is higher in pIC50: 4.9 for the first, 5.9 for the second.

Compared with `Cc1cccc(C)c1-c1ccc(OCC(N)=O)c(-c2nc(C)c(C)[nH]2)c1`, `Cc1cccc(C)c1-c1ccc(OC(F)F)c(-c2nc(C)c(C)[nH]2)c1` is lower in pIC50: 5.7 for the first, 5 for the second.

`COc1c(-c2c(C)cccc2C)cc2c(c1-c1nc(C)c(C)[nH]1)OCC2` and `COc1c(-c2c(C)cccc2C)cc2ccoc2c1-c1nc(C)c(C)[nH]1` are within 0.2 log units of each other in pIC50: 5.5 for the first, 5.4 for the second.

Compared with `COc1ncccc1-c1cc(-c2nc(C)c(C)[nH]2)cc(-c2c(C)cccc2C)c1`, `Cc1cccc(C)c1-c1cc(-c2nc(C)c(C)[nH]2)cs1` is lower in pIC50: 4.8 for the first, 4.5 for the second.

Going from `Cc1cccc(C)c1-c1ccc(-c2nc(C)c(C)[nH]2)s1` to `Cc1cccc(C)c1-c1ccc(-c2nc(C)c(C)[nH]2)o1`, the pIC50 rises from 4.1 to 4.9.

Going from `Cc1cccc(C)c1-c1cccc(N2CCN(C)CC2)c1` to `Cc1cscc1-c1cccc(-c2nc(C)c(C)[nH]2)c1`, the pIC50 rises from 4.4 to 4.8.

First: Cc1nc(-c2cccc(C(=O)Nc3ccccc3)c2)[nH]c1C
Second: Cc1nc(-c2cccc(/C=C/c3ccccc3)c2)[nH]c1C
The pIC50 of the first is lower: 4 for the first, 4.4 for the second.

For `Cc1cccc(C)c1-c1cc(-c2nc(C)c(C)[nH]2)co1`, the pIC50 was < 4.
With `COc1c(-c2nc(C)c(C)[nH]2)cccc1-c1c(C)cccc1C` the pIC50 was < 4.
In the case of `Cc1cccc(C)c1-c1cc(-c2nc(C)c(C)[nH]2)ccc1-c1ccncc1`, the pIC50 is reported as < 4.
